Measurements: the NIST ThermoML archive (doi:10.1016/j.tca.2009.12.017)
Numbers after ± are expanded uncertainties.

Conditions: Crystal; Boetius hot stage apparatus

Normal melting temperature: -11 ± 6 °C
SMILES: CNC(=O)[C@H](Cc1cnc[nH]1)NC(C)=O [N-acetyl-N'-methyl-L-alpha-histidinamide]
